One data set concerns PSN-1. The data set can be described thus: SRB colorimetric cytotoxicity assay, PSN-1. As to conditions: Homo sapiens, PSN1, 72 h, read-out: GI50 (M) PSN-1. Type of data set: cell-based. The source says: (§1) The aim of this assay is to evaluate the in vitro cytostatic (ability to delay or arrest tumor cell growth) or cytotoxic (ability to kill tumor cells) activity of the samples being tested.
(§2) A colorimetric assay, using sulforhodamine B (SRB) reaction has been adapted to provide a quantitative measurement of cell growth and viability (using the technique developed by Skehan et al., J. Natl. Cancer Inst. 1990 and following the protocol detailed in V. Vichai and K. Kirtikara (2006) Nature Protoc. 1, 1112-1116.)
(§3) This form of assay employs 96-well cell culture microplates. All the cell lines used in this study were obtained from the American Type Culture Collection (ATCC), unless otherwise indicated, and derive from different types of human cancer.
(§4) Cells were maintained in Dulbecco's Modified Eagle Medium (DMEM) (for A549, HT-29 and MDA-MB-231) or RPMI (for PSN-1) supplemented with 10% Fetal Bovine Serum (FBS), 2 mM L-glutamine, 100 U/mL penicillin and 100 U/mL streptomycin at 37° C., 5% CO2 and 98% humidity. For the experiments, cells were harvested from subconfluent cultures using trypsinization and resuspended in fresh medium before counting and plating.
(§5) Cells were seeded in 96 well microtiter plates, at 5×10^3 cells per well in aliquots of 150 μL, and allowed to attach to the plate surface for 18 hours (overnight) in drug free medium. After that, one control (untreated) plate of each cell line was fixed (as described below) and used for time zero reference value. Culture plates were then treated with test compounds (50 μL aliquots of 4× concentrated compound stock solutions made in complete culture medium) using ten serial dilutions (concentrations ranging from […]) and triplicate cultures (final concentration of DMSO being 1%). After 72 hours treatment, the antitumor effect was measured by using the SRB methodology: Briefly, cells were washed twice with PBS, fixed for 15 min in 1% glutaraldehyde solution at room temperature, rinsed twice in PBS, and stained in 0.4% SRB solution for 30 min at room temperature. Cells were then rinsed several times with 1% acetic acid solution and air-dried at room temperature. SRB was then extracted in 10 mM trizma base solution and the absorbance measured in an automated spectrophotometric plate reader at 490 nm. Effects on cell growth and survival were estimated by applying the NCI algorithm (Boyd M R and Paull K D. Drug Dev. Res. 1995, 34, 91-104).
(§6) Using the mean±SD of triplicates, a dose-response curve was automatically generated using nonlinear regression analysis to a 4-parameter logistic curve. Three reference parameters were calculated (NCI algorithm) by automatic interpolation: GI50=compound concentration that produces […] cell growth inhibition, as compared to control cultures.

The test system of a further data set is MDA-MB-231. The data set is described as follows: SRB colorimetric cytotoxicity assay, MDA-MB-231. Particulars: Homo sapiens, MDA-MB-231, 72 h, read-out: GI50 (M) MDA-MB-231. Type of data set: cell-based.
Text: as §1, §2, §3, §4, §5, §6

The next data set relates to H460 xenografts. The data set can be described thus: Comparative Example, in vivo H460 xenograft (PM050489). Also noted: species or system mice. As to conditions: 0.08 mg/kg iv. How it is done:
H460 cells were maintained in vitro at 37° C. with 5% CO2 in Dulbecco's Modified Eagle's Medium (Sigma-Aldrich, Co). Culture cells were passaged every 3 to 5 days upon reaching confluence. Each animal was subcutaneously implanted (on the right flank using 26G needle and a 1 cc syringe) at 4-6 weeks of age with 5×10^6 H460 cells suspended in 0.05 mL of a solution consisting of 50% Matrigel (Corning Incorporated Life Sciences) and 50% medium without serum or antibiotics.
Antitumor activity of PM050489 was evaluated in one human tumor model, NSCLC (H460) xenografted in immunodepressed mice. All treatments were intravenously administered at their MTD.
When tumors reached ca. 150-200 mm^3, tumor bearing animals (N=10/group) were randomly allocated into the following treatment groups: • PM050489 (0.08 mg/kg) • Placebo
Treatments were intravenously administered once per week for 2 consecutive weeks (days 0 and 7).
Tumor dimensions and body weights were recorded 3 times per week starting from the first day of treatment (Day 0). Treatments producing >20% lethality and/or 20% net body weight loss were considered toxic. Tumor volume was calculated using the equation (a·b^2)/2, where a and b were the longest and shortest diameters, respectively. Animals were euthanized when their tumors reached ca. 2,000 mm^3 and/or severe necrosis was seen. Median, mean and SD were calculated for tumor volume on each measurement day.
Antitumor effect was calculated by using ΔT/ΔC (%) and tumor growth delay (TGD). ΔT/ΔC was defined as a percentage of the change in tumor volume for each treated (T) and placebo (C) group. ΔT/ΔC was calculated immediately before the 2nd dose and on the 4th week of the study. TGD was expressed as a percentage by which the treated group volume was delayed and calculated by applying [(Dt−Dc)/Dc]100, where […] were the median times in days for treated and control groups in attaining a specified volume, fixed as 1,000 mm^3.
Treatment tolerability was assessed by monitoring body weight evolution, clinical signs as well as evidences of local damage in the injection site.

The nature of data set [1]: MTD (Maximum Tolerated Dose) determination. Particulars: Athymic Nude-Fox1 nu/nu, mouse, in vivo; iv, single dose; female athymic nude mice. The protocol: (§7) Female Athymic Nude-Fox1 nu/nu mice (Envigo) were utilized for all experiments. Animals (N=10/cage) were housed in individually ventilated cages (Sealsafe Plus®, Techniplast S.P.A.), on a 12-hour light-dark cycle at 21-23° C. and 40-60% humidity. Mice were allowed free access to irradiated standard rodent diet (Tecklad 2914C) and sterilized water. Animals were acclimated for five days prior to being individually tattoo-identified. Animal protocols were reviewed and approved according to the regional Institutional Animal Care and Use Committees.
(§8) Mice were randomly allocated into experimental groups and intravenously administered, once for the MTD (Maximum Tolerated Dose) determination or one administration a week during three consecutive weeks, for the MTMD (Maximum Tolerated Multiple Dose) determination study. The animals were administered with white formulation or with compound dissolved in the experimental formulation at different concentrations. The volume administered was always 10 mL/kg. Once administered, animals were monitored for clinical signs of systemic toxicity, changes in body weight and mortality up to 14 days after the administration.

Data set [2] is described as follows: MTMD (Maximum Tolerated Multiple Dose) determination. Particulars: iv, Q7dx3; female athymic nude mice. Type of data set: in vivo. The protocol: as §7, §8
The next data set deals with A549. The data set can be described thus: SRB colorimetric cytotoxicity assay, A549. Type of data set: cell-based. Particulars: Homo sapiens, A549, 72 h, read-out: GI50 (M) A549.
Text: as §1, §2, §3, §4, §5, §6

For a further data set, the system named is HT29. The data set can be described thus: SRB colorimetric cytotoxicity assay, HT29. Particulars: Homo sapiens, HT-29, 72 h, read-out: GI50 (M) HT29. Type of data set: cell-based.
Text: as §1, §2, §3, §4, §5, §6

Turning to `COC1=CC[C@@H]([C@@H](C)/C=C(C)/C=C\C=C/C(=O)N[C@H](C(=O)N/C=C\C[C@H](C/C=C(\C)Cl)OC(N)=O)C(C)(C)C)OC1=O` [PM050489, reference compound], the GI50 with PSN-1 was 1.9e-10 M; in the data set with MDA-MB-231, 1.37e-10 M; in the data set on A549 it was 8.59e-11 M; with HT29, 3.91e-11 M. In the data set with H460 xenografts, the “treatment tolerability” value was “prematurely finished because of severe necrosis in the tumor masses and/or decreases in body weight values”. The “ΔT/ΔC (%) Day 7” value with H460 xenografts (days 0 and 7, Day 7) was found to be 103.5%. Also, the “TGD (%)” value with H460 xenografts (tumor growth delay, target volume 1,000 mm^3) amounted to 40.0%. Further, in data set [1], the MTD at 14 days amounted to 0.075 mg/kg. Also, the MTMD in data set [2] was 0.075 mg/kg.

For orientation: GI50 means the concentration that inhibits growth by half. Broadly, the MTD is the highest dose tested that stayed within the study's limit of toxicity.

For the origin of these results see US20250243174A1, “ANTITUMORAL COMPOUNDS” (PHARMA MAR, S.A., priority 2021, published 2025).
